What was measured:
[1] = test system: FGFR3^Y373C transfected NIH3T3 cells; assay: [3H]-thymidine incorporation in NIH3T3 cells expressing FGFR3^Y373C; format: cell-based, mouse; settings: A31 2 mM
Method: (§1) NIH-3T3 clones stably expressing FGFR3^+/+ (WT) and FGFR3^Y373C, FGFR3K650M (human constructs) were used. The stable clones were selected with G418. NIH-3T3 clones were incubated for 8 h in 10% newborn calf serum DMEM supplemented or not with A31 (2 mM). [3H] thymidine was added at a concentration of […] and incubated for 16 hours. The cells were harvested on glass fiber filter paper and assayed for radioactivity by liquid scintillation counting. The inventors used Top Count Microplates scintillation counter (Perkin Elmer).
(§2) To determine whether A31 modulates the mitogenic activity of activated FGFR3, the inventors measured [3H]-thymidine incorporation in FGFR3^Y373C and FGFR3^K650M transfected NIH3T3 cells. The mitogenic activity was increased in cells expressing FGFR3 mutations compared to WT (FGFR3^Y373C, 9927±2921 cpm; FGFR3^K650M, 15048±5251 cpm; WT, 7499±1667 cpm; p<10^−5 versus WT).

[2] = test system: Fgfr3^Y367C/+ mouse growth plates; assay: Proliferation markers and cell cycle regulators in growth plates (immunohistochemistry, PCNA quantification); format: cell-based
Method: In situ hybridization using [S35]-UTP labeled antisense ribopropes for collagen X was carried out as previously described (Delezoide et al., Hum Mol Genet, 6, 1899-1906, 1997). Sections were counterstained with Hematoxylin. For immunohistochemistry, sections were stained with antibodies specific to FGFR3 (1:250 dilution; Sigma), anti PCNA (1:1000 dilution; Abcam), anti-KI67 (1:300; Abcam), anti-cyclin D1 (1:80 dilution; Santa Cruz) and anti-p57 (1:100 dilution; Santa Cruz) using the Dako Envision kit. Images were captured with an Olympus PD70-IX2-UCB microscope.
Three observers counted PCNA-positive and negative chondrocytes in proliferative […], prehypertrophic (PH) and hypertrophic (H) zones of the growth plate. A Student's t-test was used to compare treated (A31) and untreated femurs. Imagine software cellSens (Olympus) was used for counting cells. A p-value<0.05 is considered significant.
The inventors noted a higher expression of PCNA than KI67 in the mutant growth plate. Furthermore, the inventors investigated whether the presence of mutated Fgfr3 caused an impairment of expression of cell cycle regulators. In fact, activated Fgfr3 induced a significant overexpression of cyclin D1 in the proliferative and PH chondrocytes of Fgfr3^Y367C/+ mice. […] The inventors further analyzed the level of CDK inhibitors (CDKIs) negatively regulating the cell cycle, particularly p57, a member of the Cip/Kip family. Activated Fgfr3 induced a higher expression of p57 predominantly in late proliferative and PH chondrocytes. […] The inventors conclude that activated FGFR3 leads to over-expression of markers of proliferation (PCNA, KI67) and cell cycle regulators (cyclin D1 and p57) particularly in the prehypertrophic zone.

[3] = test system: FGFR3^K650M transfected NIH3T3 cells; assay: [3H]-thymidine incorporation in NIH3T3 cells expressing FGFR3^K650M; format: cell-based, mouse; settings: A31 2 mM
Method: as §1, §2

Fgfr3 [4] = assay: Fgfr3 protein expression (immunohistochemistry of femurs, Western blot of costal primary chondrocytes); format: cell-based, mouse; settings: A31; data not shown
Method: Six sets of ex vivo experiments were performed. Femur embryos at day E16.5 from WT (n=6) and Fgfr3^Y367C/+ (n=6) mice were used and incubated for 5 days in DMEM medium with antibiotics and 0.2% BSA (Sigma) supplemented with A31 or PD173074 (as control) at a concentration of 2 mM. Right femur was cultured in supplemented medium and compared with the left one cultured in control medium. Rib cage from E16.5 WT and Fgfr3^Y367C/+ mice embryos were isolated and stripped of all soft tissues. Primary chondrocytes were obtained from rib cages. The ribs were incubated in a pronase solution (Roche; 2 mg/ml) followed by a digestion in Collagenase A (Roche; 3 mg/ml) at 37° C. […] To establish the effect of the inhibitors, the right femur was cultured in supplemented medium and compared with the left one cultured in control medium The bone length was measured at the beginning (before treatment) and at the end of time course. […] The genotype of WT, Fgfr3^Y367C/+ and Fgfr3^−/− mice were determined by PCR of tail DNA as previously described (Pannier et al., Biochim Biophys Acta, 1792: 140-147, 2009). […]
Immunoprecipitation were performed by incubating […] rabbit anti-FGFR3 (Sigma)/[…] protein with protein A-agarose (Roche). […] Bound proteins were detected by chemiluminescence (ECL, Amersham). The blots were rehybrididized with an antipan-actin antibody for quantification (Millipore). […]

FGFR3 [5] = biological target: FGFR3 (Homo sapiens, UniProt P22607); settings: read-out: IC50 for inhibition of autophosphorylation of FGFR3; cited from earlier work
[6] = A31-treated Fgfr3^Y367C/+ growth plates

FGFR3, sequence (P22607 23-806): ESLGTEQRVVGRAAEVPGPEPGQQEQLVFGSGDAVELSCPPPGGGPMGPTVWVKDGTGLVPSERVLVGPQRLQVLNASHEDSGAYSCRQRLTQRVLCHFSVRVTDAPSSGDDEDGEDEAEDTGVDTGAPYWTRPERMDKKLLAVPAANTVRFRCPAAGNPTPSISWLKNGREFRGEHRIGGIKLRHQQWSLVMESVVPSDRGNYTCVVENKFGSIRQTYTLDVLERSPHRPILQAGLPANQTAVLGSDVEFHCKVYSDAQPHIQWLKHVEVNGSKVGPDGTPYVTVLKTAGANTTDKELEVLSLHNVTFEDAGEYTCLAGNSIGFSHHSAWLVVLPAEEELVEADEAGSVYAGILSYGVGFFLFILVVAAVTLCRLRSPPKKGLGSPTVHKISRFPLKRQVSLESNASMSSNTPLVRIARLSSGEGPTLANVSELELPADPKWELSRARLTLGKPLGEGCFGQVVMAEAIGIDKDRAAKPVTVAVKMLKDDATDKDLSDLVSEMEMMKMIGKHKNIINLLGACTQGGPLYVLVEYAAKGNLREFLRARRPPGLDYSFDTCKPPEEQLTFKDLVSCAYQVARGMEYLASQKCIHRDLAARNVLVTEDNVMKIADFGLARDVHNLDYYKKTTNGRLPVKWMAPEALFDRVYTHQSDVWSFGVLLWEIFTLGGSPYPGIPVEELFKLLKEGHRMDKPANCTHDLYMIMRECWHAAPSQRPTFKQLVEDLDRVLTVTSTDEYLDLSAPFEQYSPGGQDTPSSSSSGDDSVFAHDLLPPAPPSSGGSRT

In the case of `COc1cc(OC)cc(-c2cc3cnc(NCc4cn(CC5CCCN(C)C5)nn4)nc3nc2NC(=O)NC(C)(C)C)c1` (stereo not drawn) [Compound A31], the “[3H]-thymidine incorporation (DNA synthesis)” value [1] is reported as 3144±1201 cpm, the “PCNA positive cells, hypertrophic (H) zone” value [2, 6] is reported as 18% and the “PCNA positive cells, prehypertrophic (PH) zone” value [2, 6] is reported as 20%. For the same molecule, the “p57 protein expression in growth plate” value ([2]; A31, PH zone, data not shown) was “reduced expression of p57 protein”, the “KI67 expression in growth plates” value ([2]; A31, data not shown) was “decreased this expression” and the “cyclin D1 expression in mutant femurs (immunohistochemistry)” value ([2]; A31, data not shown) was “returned cyclin D1 expression to control levels”. For the same molecule, the “[3H]-thymidine incorporation (DNA synthesis)” value [3] was 6281±2699 cpm, the “Fgfr3 expression in mutant femurs (immunohistochemical staining)” value (Fgfr3 [4]) was “large decrease of Fgfr3 expression” and the IC50 (FGFR3 [5]) was ~0.19 µM.

Source: patent US11357778B2, “Antagonist of the fibroblast growth factor receptor 3 (FGFR3) for use in the treatment or the prevention of skeletal disorders linked with abnormal activation of FGFR3” (INSTITUT NATIONAL DE LA SANTE ET DE LE RECHERCHE MEDICALE …, priority 2011, dated 2022)
